Assay results taken from patent US20120010161A1, “NOVEL AZAPEPTIDE OR AZAPEPTIDOMIMETIC COMPOUNDS INHIBITING BCRP AND/OR P-GP” (CENTRE NATIONAL DE LA RECHERCHE SCIENTIFIQUE, priority 2009, published 2012).
pKi: −log10 of the molar value. Entries after “also recorded” stand apart in the source; their conditions may differ.

Tests used:
ABCG2 [1] = assay: Estimation of the level of expression of ABCG2 (western blot); type: cell-based, human; conditions: 5 μM, 3 h to 72 h
Procedure: Estimation of the level of expression of ABCG2. The cells HEK293 pcDNA3.1 or HEK293 pcDNA3.1 BCRP are seeded in sixteen 6 cm^2 Petri dishes and incubated for 24 hours at 37° C. under 5% CO2. After this incubation, the various wells are supplemented with 30 μL either of DMSO (controls) or of compound IA.2 dissolved in DMSO, corresponding to a final concentration after dilution of 5 μM. After 3 h, 24 h, 48 h or 72 h of incubation, the cells are trypsinized and centrifuged at 200 g for 5 minutes. The protein fraction is extracted with a hypotonic lysis buffer (10 mM Tris-Cl pH 7.5, 10 mM NaCl, 1 mM MgCl2, 1 mM DTT, protease inhibitors) and assayed with bicinchoninic acid (Sigma-Aldrich). Ten micrograms of this fraction are deposited on polyacrylamide gel of Laemmli type (U. K. Laemmli, Nature 1970, 227, 680) to separate the proteins, which are then transferred onto polyvinyl fluoride (pvdf) membrane for 60 minutes at 100 mA in a 10 mM CAPS pH 11.1 […] buffer, 10% methanol (Sigma-Aldrich). The pvdf membrane is then saturated for 30 minutes in a solution of powdered skimmed milk at 1% (w/v) in TBST buffer (Tris buffer saline 1×, Tween 20 0.1%). […] Revelation is performed using the “immobilon western” kit (Millipore) with the QuantityOne software (Biorad). […]

ABCG2 [2] = molecular target: T1, ABCG2 (Homo sapiens, UniProt Q9UNQ0); assay: Type of inhibition: mitoxantrone efflux by ABCG2 at varied substrate and inhibitor concentrations (FIG. 2); type: cell-based; set-up: expressed in transfected cells; host or cells: HEK-293 transfected with pcDNA3.1-ABCG2; conditions: for type of inhibition of ABCG2: mitoxantrone 0 to 20 μM, inhibitor 0 to 20 μM
T1 sequence (Q9UNQ0 1-655): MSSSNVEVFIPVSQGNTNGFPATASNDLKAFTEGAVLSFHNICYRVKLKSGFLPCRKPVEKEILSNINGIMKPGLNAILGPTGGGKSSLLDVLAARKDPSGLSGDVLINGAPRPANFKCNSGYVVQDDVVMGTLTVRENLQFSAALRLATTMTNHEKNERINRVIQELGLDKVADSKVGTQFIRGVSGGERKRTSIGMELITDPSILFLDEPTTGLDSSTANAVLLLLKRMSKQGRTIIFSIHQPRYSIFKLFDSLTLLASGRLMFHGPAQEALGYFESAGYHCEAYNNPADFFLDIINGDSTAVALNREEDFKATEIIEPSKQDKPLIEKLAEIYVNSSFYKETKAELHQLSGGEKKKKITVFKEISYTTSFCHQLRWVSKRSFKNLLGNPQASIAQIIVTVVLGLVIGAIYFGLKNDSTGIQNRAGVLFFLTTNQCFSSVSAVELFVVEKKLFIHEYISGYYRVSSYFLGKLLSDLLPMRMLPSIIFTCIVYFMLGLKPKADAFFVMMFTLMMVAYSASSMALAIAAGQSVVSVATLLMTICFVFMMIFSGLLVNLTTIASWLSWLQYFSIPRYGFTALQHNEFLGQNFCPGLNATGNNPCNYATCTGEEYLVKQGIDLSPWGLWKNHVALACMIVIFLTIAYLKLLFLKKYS
Procedure: The efflux of mitoxantrone by ABCG2 was measured at substrate concentrations ranging from 0 to 20 μM (panels A-C) in the presence or absence of fixed concentrations of compound (IA.2) in a range from 0 to 20 μM (panels D-E). In FIG. 2, the results obtained by varying the […] concentration are presented as a representation, which is either direct in panel A or of Lineweaver-Burke form in panel B or of Eadie-Hofstee form in panel C. The results obtained by varying the […] concentration are presented in linear (panel D) or logarithmic (panel E) x-axis scale. The curves were adjusted by means of the SigmaPlot software.
This is confirmed by the Lineweaver-Burke and Eadie-Hofstee representations presented, respectively, in FIG. 2B and FIG. 2C. The representations of these two graphs are characteristic of this type of inhibition. The inhibition constant K of compound (IA.2) is estimated as about 1 μM from the adjustment of the points of FIG. 2D or FIG. 2E.

NIH-3T3 cells = assay: Cytotoxicity on cell growth, MTT test; type: cell-based; conditions: 72 hours
Procedure: The cells are seeded (10 000 cells/well) in 96-well plates and incubated for 24 hours at 37° C. under 5% CO2. Varied concentrations of mitoxantrone (from 0 to 20 μM in a constant final volume of 100 μL) are then added with an equal volume of each of the test compounds. The cells are then left to divide for 72 hours. The cytotoxicity is evaluated colorimetrically with 3-(4,5-dimethylthiazol-2-yl)-2,5-diphenyltetrazolium bromide (MTT).
Increasing concentrations of compound (IB.1) are applied to NIH-3T3 cells expressing or not expressing ABCB1, and whose residual vitality is evaluated after 72 hours of treatment by an MTT test. The results are illustrated in FIG. 9, in which the cells expressing ABCB1 are represented by empty circles, and those not expressing it by solid circles. […] It increases by 30-40% thereafter, but however remains limited to this value, up to a concentration equivalent to 40 times its IC50, whether or not ABCB1 is expressed.

CC(C)(C)OC(=O)NN(C(=O)N[C@@H](CCCCNC(=O)OCc1ccccc1)C(=O)OC(C)(C)C)c1cccc(C(=O)OCc2ccccc2)c1 [IA.2, tert-Butyl ester of (2S)-6-(benzyloxycarbonylamino)-2-[1-(3′-(benzyloxycarbonyl)phenyl)-2-(tert-butoxycarbonyl)hydrazino-carbonylamino]hexanoic acid]
level of expression of ABCG2 (ABCG2 [1]; HEK293 BCRP cells, vs DMSO): reduces the level of expression; also recorded: decrease in the level of expression | level of expression of tubulin (control protein) (ABCG2 [1]; HEK293 cells): without affecting | pKi (ABCG2 [2]; ABCG2, mitoxantrone efflux, from adjustment of FIG. 2D or 2E, read-out: inhibition constant K): ~6.00 | type of inhibition of ABCG2 (ABCG2 [2]): noncompetitive inhibitor

CC(C)(C)OC(=O)N[C@H](CNN(CCCCCCNC(=O)OCc1ccccc1)C(=O)OC(C)(C)C)CC(=O)OCc1ccccc1 [IB.1, Benzyl ester of (3S)-4-[2-(6-benzyloxycarbonylaminohexyl)-2-tert-butoxycarbonylhydrazino]-3-tert-butoxycarbonylaminobutyric acid]
increase of cytotoxicity on NIH-3T3 cells (NIH-3T3 cells; above 5 times and up to 40 times its IC50, expressing or not ABCB1): 30-40% | harmlessness on NIH-3T3 cells (NIH-3T3 cells; cells expressing or not ABCB1): harmlessness | cytotoxicity on NIH-3T3 cells (NIH-3T3 cells; up to 5 times its IC50): negligible

CC(C)(C)OC(=O)N[C@H](CNN(CCCCCCNC(=O)OCc1ccccc1)C(=O)OCc1ccccc1)CC(=O)OCc1ccccc1 [IB.11, Benzyl ester of (3S)-4-[2-benzyloxycarbonyl-2-(6-benzyloxycarbonylaminohexyl)hydrazino]-3-tert-butoxycarbonyl-aminobutyric acid]
type of inhibition of ABCG2 (ABCG2 [2]): noncompetitive
